Data on four molecules can be found in US8524755B2 (priority 2009, dated 2013).

Assay [1] deals with T1, Cholecystokinin CCK1 (CCKA) (h) (Homo sapiens, UniProt P32238).
T1 construct: expressed in transfected cells; host or cells: CHO cells
T1 sequence (P32238 1-428): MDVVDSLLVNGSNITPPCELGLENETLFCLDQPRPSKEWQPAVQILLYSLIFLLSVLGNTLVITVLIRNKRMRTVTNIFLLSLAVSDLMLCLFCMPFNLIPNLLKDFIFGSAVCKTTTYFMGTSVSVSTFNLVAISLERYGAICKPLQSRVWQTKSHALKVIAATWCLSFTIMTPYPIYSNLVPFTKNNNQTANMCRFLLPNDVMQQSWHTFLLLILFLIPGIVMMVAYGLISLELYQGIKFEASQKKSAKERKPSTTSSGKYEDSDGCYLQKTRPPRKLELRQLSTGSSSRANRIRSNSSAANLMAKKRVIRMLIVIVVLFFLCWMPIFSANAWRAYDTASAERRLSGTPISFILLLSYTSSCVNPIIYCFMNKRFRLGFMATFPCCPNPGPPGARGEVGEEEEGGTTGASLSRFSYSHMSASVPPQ
Put plainly: Binding CCK1 (CCKA) (h) (ag). The note with it: read-out: % Inhibition of Control Specific Binding @ 10 μM. As to the method:
(§1) Radioligand binding assay methods utilized to measure the activity of compounds of the invention will be familiar to those skilled in the art. In each assay case, the assay components such as, for example, the cell-type, ligand, reference compound and the like, will be familiar to practitioners of such an assay.
(§2) Analysis and Expression of Results: Compounds of the invention were tested in the biochemical assays and percent inhibition of specific binding was determined. The specific ligand binding to the receptors is defined as the difference between the total binding and the nonspecific binding determined in the presence of an excess of unlabelled ligand. The results are expressed as a percent inhibition of control specific binding (100−((measured specific binding/control specific binding)×100)) obtained in the presence of test compounds.

Assay [2] deals with T2, Dopamine D3 (h) (Homo sapiens, UniProt P35462).
T2 construct: expressed in transfected cells; host or cells: CHO cells
The assay can be described thus: Binding D3 (h) (aa). The note with it: read-out: % Inhibition of Control Specific Binding @ 10 μM. As to the method: as §1, §2

The target of assay [3] is T3, Dopamine D4.4 (h) (Homo sapiens, UniProt P21917).
T3 construct: expressed in transfected cells; host or cells: CHO cells
T3 sequence (P21917 1-419): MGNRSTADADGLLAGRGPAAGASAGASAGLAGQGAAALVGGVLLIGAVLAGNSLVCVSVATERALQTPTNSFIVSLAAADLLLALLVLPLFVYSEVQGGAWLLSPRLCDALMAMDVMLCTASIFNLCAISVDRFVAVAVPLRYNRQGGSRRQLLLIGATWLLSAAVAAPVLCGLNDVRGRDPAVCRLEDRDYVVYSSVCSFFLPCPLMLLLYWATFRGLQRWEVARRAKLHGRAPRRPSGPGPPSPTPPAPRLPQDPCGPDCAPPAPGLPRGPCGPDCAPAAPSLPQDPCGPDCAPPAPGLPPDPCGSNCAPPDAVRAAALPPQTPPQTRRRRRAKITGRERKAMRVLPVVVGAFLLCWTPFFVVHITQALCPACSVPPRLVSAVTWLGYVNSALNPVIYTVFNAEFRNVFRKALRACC
Put plainly: Binding D4.4 (h) (aa). The note with it: read-out: % Inhibition of Control Specific Binding @ 10 μM. As to the method: as §1, §2

Assay [4] has as its system GABA (ns). The assay can be described thus: Binding GABA (ns) (ag). More on the design: species or system rat. As to the method:
as §1, §2

Assay [5] addresses T4, Histamine H3 (h) (Homo sapiens, UniProt Q9Y5N1).
T4 construct: expressed in transfected cells; host or cells: CHO cells
The assay can be described thus: Binding H3 (h) (ag). The note with it: read-out: % Inhibition of Control Specific Binding @ 10 μM. As to the method:
as §1, §2

Assay [6] concerns the target T5, Melanocortin MC4 (h) (Homo sapiens, UniProt P32245).
T5 construct: expressed in transfected cells; host or cells: CHO cells
Put plainly: Binding MC4 (h) (ag). The note with it: read-out: % Inhibition of Control Specific Binding @ 10 μM. As to the method:
as §1, §2

In assay [7] the test system is Muscarinic M (ns). The assay can be described thus: Binding M (ns) (aa). Set-up: species or system rat. As to the method: as §1, §2
Assay [8] deals with Neuropeptide Y (ns). Put plainly: Binding Y (ns) (ag). More on the design: species or system rat. As to the method: as §1, §2
In assay [9] the test system is P2X. Put plainly: Binding P2X (ag). Set-up: species or system rat. As to the method: as §1, §2
Assay [10] concerns 5-HT (ns). The assay can be described thus: Binding 5-HT (ns) (ag). More on the design: species or system rat. As to the method:
as §1, §2

Assay [11] concerns the target T6, Estrogen ER (ns) (h) (Homo sapiens, UniProt P03372).
T6 construct: MCF-7 cells (cytosol); endogenous in cells; host or cells: MCF-7 cells (cytosol)
Put plainly: Binding ER (ns) (h) (ag). The note with it: read-out: % Inhibition of Control Specific Binding @ 10 μM. As to the method: as §1, §2

The target of assay [12] is T7, Thyrotropin Releasing Hormone TRH1 (h) (Homo sapiens, UniProt P34981).
T7 construct: expressed in transfected cells; host or cells: CHO cells
T7 sequence (P34981 1-398): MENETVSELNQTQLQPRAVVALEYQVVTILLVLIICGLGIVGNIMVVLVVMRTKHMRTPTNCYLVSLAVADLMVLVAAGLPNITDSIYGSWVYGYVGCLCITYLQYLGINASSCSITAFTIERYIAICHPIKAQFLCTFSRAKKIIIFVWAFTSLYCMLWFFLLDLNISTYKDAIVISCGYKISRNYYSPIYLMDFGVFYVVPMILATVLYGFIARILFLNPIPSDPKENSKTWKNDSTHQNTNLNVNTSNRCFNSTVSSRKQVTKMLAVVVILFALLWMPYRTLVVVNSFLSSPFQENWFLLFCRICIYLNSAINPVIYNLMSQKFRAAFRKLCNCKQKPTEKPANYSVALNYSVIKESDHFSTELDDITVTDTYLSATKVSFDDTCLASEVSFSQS
Put plainly: Binding TRH1 (h) (ag). The note with it: read-out: % Inhibition of Control Specific Binding @ 10 μM. As to the method: as §1, §2

For assay [13], the system named is SKCa channel. Put plainly: Binding SKCa channel (aa). Set-up: species or system rat. As to the method:
as §1, §2

In assay [14] the test system is Na^+ channel (site 2). The assay can be described thus: Binding Na+ channel (site 2) (aa). More on the design: species or system rat. As to the method:
as §1, §2

Assay [15] addresses T8, choline transporter (CHT1) (h) (Homo sapiens, UniProt Q9GZV3).
T8 construct: expressed in transfected cells; host or cells: CHO cells
T8 sequence (Q9GZV3 1-580): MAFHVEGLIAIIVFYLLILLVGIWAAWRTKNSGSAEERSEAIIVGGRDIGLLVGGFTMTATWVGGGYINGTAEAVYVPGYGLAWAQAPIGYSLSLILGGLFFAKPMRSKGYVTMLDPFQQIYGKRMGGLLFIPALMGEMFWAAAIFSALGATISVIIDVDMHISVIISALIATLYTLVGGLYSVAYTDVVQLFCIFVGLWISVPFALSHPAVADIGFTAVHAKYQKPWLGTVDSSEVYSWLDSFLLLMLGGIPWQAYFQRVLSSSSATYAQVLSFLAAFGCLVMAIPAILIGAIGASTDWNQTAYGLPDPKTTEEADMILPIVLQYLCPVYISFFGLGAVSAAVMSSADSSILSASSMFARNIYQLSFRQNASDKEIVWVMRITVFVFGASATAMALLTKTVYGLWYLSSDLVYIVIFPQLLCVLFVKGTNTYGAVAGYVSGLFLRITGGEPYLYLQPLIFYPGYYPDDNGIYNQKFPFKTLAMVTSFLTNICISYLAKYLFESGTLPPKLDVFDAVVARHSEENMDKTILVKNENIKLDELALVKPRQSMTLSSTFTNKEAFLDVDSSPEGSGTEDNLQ
The assay can be described thus: Binding choline transporter (CHT1) (h) (aa). The note with it: read-out: % Inhibition of Control Specific Binding @ 10 μM. As to the method:
as §1, §2

What is called inhibition is the drop in the measured response relative to a control, in per cent.

T5 sequence (P32245 whole entry): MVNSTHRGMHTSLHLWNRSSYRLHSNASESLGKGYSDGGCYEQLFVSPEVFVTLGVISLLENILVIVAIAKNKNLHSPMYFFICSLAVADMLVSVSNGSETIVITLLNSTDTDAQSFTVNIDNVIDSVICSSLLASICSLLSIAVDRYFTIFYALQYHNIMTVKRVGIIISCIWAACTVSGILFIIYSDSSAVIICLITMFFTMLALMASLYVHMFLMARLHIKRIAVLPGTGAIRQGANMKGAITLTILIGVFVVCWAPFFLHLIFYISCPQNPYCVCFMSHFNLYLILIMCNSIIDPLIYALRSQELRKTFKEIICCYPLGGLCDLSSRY
T2 sequence (P35462 whole entry): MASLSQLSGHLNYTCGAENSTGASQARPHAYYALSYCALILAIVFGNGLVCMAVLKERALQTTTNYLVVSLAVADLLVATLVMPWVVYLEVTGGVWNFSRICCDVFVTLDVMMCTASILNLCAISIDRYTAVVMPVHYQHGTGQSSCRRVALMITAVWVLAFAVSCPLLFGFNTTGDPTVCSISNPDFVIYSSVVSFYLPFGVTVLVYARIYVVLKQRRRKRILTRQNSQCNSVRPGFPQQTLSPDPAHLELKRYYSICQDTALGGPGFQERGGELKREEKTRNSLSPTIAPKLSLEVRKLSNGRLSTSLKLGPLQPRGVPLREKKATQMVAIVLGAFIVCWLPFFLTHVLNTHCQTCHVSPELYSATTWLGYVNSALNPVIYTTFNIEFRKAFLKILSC
T6 sequence (P03372 whole entry): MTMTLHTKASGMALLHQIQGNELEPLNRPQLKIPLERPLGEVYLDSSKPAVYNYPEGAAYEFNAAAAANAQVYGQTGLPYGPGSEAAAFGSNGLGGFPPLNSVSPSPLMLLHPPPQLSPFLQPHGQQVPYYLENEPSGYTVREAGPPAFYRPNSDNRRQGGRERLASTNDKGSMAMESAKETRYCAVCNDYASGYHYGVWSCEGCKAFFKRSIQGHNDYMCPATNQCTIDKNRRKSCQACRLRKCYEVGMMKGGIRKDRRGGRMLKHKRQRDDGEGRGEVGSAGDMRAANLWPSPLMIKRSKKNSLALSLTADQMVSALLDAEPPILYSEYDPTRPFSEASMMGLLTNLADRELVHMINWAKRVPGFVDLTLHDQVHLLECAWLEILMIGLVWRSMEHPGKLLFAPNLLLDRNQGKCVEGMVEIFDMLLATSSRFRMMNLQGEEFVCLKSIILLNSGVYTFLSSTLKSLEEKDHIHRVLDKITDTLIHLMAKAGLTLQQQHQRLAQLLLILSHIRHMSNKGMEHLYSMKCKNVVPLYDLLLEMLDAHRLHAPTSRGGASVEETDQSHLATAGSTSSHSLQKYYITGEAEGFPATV
T4 sequence (Q9Y5N1 whole entry): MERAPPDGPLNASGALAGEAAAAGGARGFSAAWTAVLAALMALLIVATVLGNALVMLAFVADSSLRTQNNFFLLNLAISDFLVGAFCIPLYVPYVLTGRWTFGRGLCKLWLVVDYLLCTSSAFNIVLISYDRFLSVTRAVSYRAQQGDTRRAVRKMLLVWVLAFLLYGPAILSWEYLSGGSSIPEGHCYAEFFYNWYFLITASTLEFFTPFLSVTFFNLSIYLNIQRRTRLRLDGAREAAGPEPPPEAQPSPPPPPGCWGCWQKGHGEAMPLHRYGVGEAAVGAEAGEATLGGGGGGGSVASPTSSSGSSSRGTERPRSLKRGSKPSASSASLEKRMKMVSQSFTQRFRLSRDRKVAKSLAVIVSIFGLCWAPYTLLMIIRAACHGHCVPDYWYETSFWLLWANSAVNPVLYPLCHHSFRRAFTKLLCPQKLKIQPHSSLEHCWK

`CC1(C)C(=O)N(c2ccc(C#N)c(C(F)(F)F)c2)C(=S)N1c1ccc(C(=O)O)c(F)c1` [(MI), 4-(3-(4-cyano-3-(trifluoromethyl)phenyl)-5,5-dimethyl-4-oxo-2-thioxoimidazolidin-1-yl)-2-fluorobenzoic acid]: the inhibition at 10 µM in assay [1] was 47%; in assay [2], 7%; in [3] it was 1%; in [5] it was -3%; in [6], -23%; in assay [11], -8%. Also, the inhibition at 10 µM in [12] is 18%; in [15], -16%. Moreover, the “% Inhibition of Control Specific Binding @ 10 μM” value (“% Inhibition” below) in [4] is −12%; in assay [7], 18%; in assay [8], −6%; in assay [9] it was 4%; in assay [10], 21%; in assay [13], −6%. Besides, the “% Inhibition” value in assay [14] is reported as −5%.

For `CC1(C)C(=O)N(c2ccc(C#N)c(C(F)(F)F)c2)C(=S)N1c1ccc(C(N)=O)c(F)c1` [(MII), 4-(3-(4-Cyano-3-(trifluoromethyl)phenyl)-5,5-dimethyl-4-oxo-2-thioxoimidazolidin-1-yl)-2-fluorobenzamide], the inhibition at 10 µM in assay [1] is 0%; in [2], 11%; in assay [3], 9%; in assay [5] it was -2%; in assay [6] it was -25%; in assay [11] it was 3%. Also, the inhibition at 10 µM is -4% in assay [12] and -22% in assay [15]. For the same molecule, the “% Inhibition” value is 0% in assay [4]; 1% in [7]; −6% in [8]; 4% in assay [9]; 14% in assay [10]; 4% in assay [13]. Also, the “% Inhibition” value in [14] came out at 13%.

As to `CC1(C)C(=O)N(c2ccc(C#N)c(C(F)(F)F)c2)C(=O)N1c1ccc(C(N)=O)c(F)c1` [(MIII), 4-(3-(4-cyano-3-(trifluoromethyl)phenyl)-5,5-dimethyl-2,4-dioxoimidazolidin-1-yl)-2-fluorobenzamide], the inhibition at 10 µM is -14% in assay [1]; 0% in assay [2]; 13% in [3]; -13% in assay [5]; -11% in [6]; -2% in assay [11]. Besides, the inhibition at 10 µM was -5% in [12] and -13% in [15]. The “% Inhibition” value in assay [4] is given as −10%; in assay [7] it was 20%; in assay [8], −2%; in assay [9] it was 2%; in assay [10] it was −12%; in assay [13] it was 1%. Further, the “% Inhibition” value in assay [14] turned out to be 1%.

In the case of `CNC(=O)c1ccc(N2C(=O)N(c3ccc(C#N)c(C(F)(F)F)c3)C(=O)C2(C)C)cc1F` [(MIV), 4-(3-(4-cyano-3-(trifluoromethyl)phenyl)-5,5-dimethyl-2,4-dioxoimidazolidin-1-yl)-2-fluoro-N-methylbenzamide], the inhibition at 10 µM was 25% in assay [1]; 7% in assay [2]; -15% in [3]; -4% in assay [5]; -15% in assay [6]; -11% in assay [11]. For the same molecule, the values for the inhibition at 10 µM in assay [12] and in [15] were 0% and 10%, respectively. In addition, the “% Inhibition” value in [4] is 5%; in assay [7] it was 25%; in assay [8], −2%; in [9], 2%; in assay [10], 6%; in assay [13], −10%. The “% Inhibition” value in assay [14] came out at 5%.
